Common to all, as to assay: NCI anticancer screen, dose series, 48 h
Assay [1] relates to SF-295 CNS.
Assay [2] concerns UO-31 renal.
The test system of assay [3] is SN12C renal.
Assay [4] concerns SF-539 CNS.
Assay [5] deals with SK-MEL-28 melanoma.
For assay [6], the system named is ACHN renal.
Assay [7] concerns UACC-257 melanoma.
The test system of assay [8] is U251 CNS.
Assay [9] has as its system HL-60(TB) leukemia.
For assay [10], the system named is OVCAR-5 ovarian.
The test system of assay [11] is HT29 colon.
Assay [12] has as its system IGROV1 ovarian.
The subject of assay [13] is NCI-H460 lung.
The test system of assay [14] is T-47D breast.
Assay [15] deals with HOP-92 NSCLC.
Assay [16] concerns NCI-H23 lung.
Assay [17] has as its system NCI-H522 lung.
The test system of assay [18] is CCRF-CEM leukemia.
The subject of assay [19] is RXF 393 renal.

The values that follow come from PubChem BioAssay (NCI).

Where “and” joins values, the source holds several entries; their conditions need not be identical. Equal entries are not always repeated.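 These data come from cells grown in 96-well plates and exposed to compound for 48 hours at five concentrations. GI50 is the concentration that inhibits growth by half. TGI marks complete inhibition of growth.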

As for `CCOC(=O)C(NNS(=O)(=O)c1ccc(C)cc1)S(=O)(=O)C(F)(F)C(F)(F)C(F)(F)C(F)(F)F` (stereo not given), the TGI in assay [1], in [2], in [3], in assay [4], in [5] and in assay [6] was greater than 100 µM in each case. Further, the TGI in assay [7], in assay [8], in assay [9], in assay [10], in assay [11] and in assay [12] was greater than 100 µM each time. Besides, the TGI in assay [13], in assay [14], in assay [15], in [16] and in assay [17] was greater than 100 µM in each case.
In the case of `CC(=O)OCc1nc(C#N)c(N)o1`, the TGI in assay [1], in [18], in assay [2], in assay [3], in assay [5] and in assay [6] was greater than 100 µM in each case. In addition, the TGI in assay [7], in [8], in assay [9], in assay [10], in assay [11] and in [12] was greater than 100 µM in each case. In addition, the TGI in assay [13], in assay [19], in assay [15], in assay [16] and in assay [17] was greater than 100 µM in each case.
`CS(=O)(=O)c1nc(N)nc2nc[nH]c12`: the TGI in [1], in assay [18], in assay [2], in [3], in assay [4] and in [5] was greater than 100 µM throughout. Also, the TGI in assay [6], in [7], in assay [8], in assay [9], in assay [10] and in assay [11] was greater than 100 µM each time. For the same molecule, the TGI in assay [12], in [13], in [19], in assay [15], in assay [16] and in [17] was greater than 100 µM each time.
Turning to `CC(=O)O[C@H]1CC[C@H]2[C@@H]3CCc4cc(O)c(I)cc4[C@H]3CC[C@]12C`, the TGI was found to be 28.6 µM in assay [1]; 27.1 µM in assay [2]; 37.2 µM in assay [3]; 29.7 µM in [4]; 29.6 µM in [5]; 28.1 µM in assay [6]. The TGI in assay [7] was determined as 30 µM; in assay [8], 27.8 µM; in [9], 80.9 µM; in assay [10], 32.2 µM; in assay [11] it was 33.2 µM; in assay [12] it was 30.5 µM. Moreover, the TGI in assay [13] was 26.9 µM; in assay [14], 31.7 µM; in assay [16] it was 27.4 µM; in assay [17], 25.2 µM. Moreover, the GI50 in [3] is 18 µM.
For `COC(=O)[C@@H]1O[C@]12C(CO[Si](C)(C)C(C)(C)C)OC(n1ccc(=O)[nH]c1=O)C2O[Si](C)(C)C(C)(C)C` (stereo not given in full), the TGI was 57.7 µM in [1]; greater than 100 µM in assay [18]; 45.5 µM in [2]; 85.7 µM in [3]; 38 µM in assay [4]; 59 µM in [5]. Besides, the TGI in [6] was 54.1 µM; in [7], 57.5 µM; in assay [8] it was greater than 100 µM; in assay [9] it was 62.6 µM; in [10] it was 77.5 µM; in assay [11], 43.4 µM. Besides, the TGI in [12] was 46.1 µM; in [13], greater than 100 µM; in assay [15], 88.1 µM; in assay [16] it was 54.5 µM; in assay [17], 45.4 µM.
`Cc1ccc(S(=O)(=O)Nn2c(-c3ccccc3)c(C#N)c(-c3ccc(Cl)cc3)c(C#N)c2=O)cc1`: the TGI in assay [1] is greater than 100 µM; in assay [18], 60.4 µM; in assay [3], greater than 100 µM; in [4] it was 55.7 µM; in [5], 78.5 µM; in assay [6] it was greater than 100 µM. The TGI in assay [7] is greater than 100 µM; in assay [8] it was 55.1 µM; in assay [9], 31.7 µM; in assay [10], greater than 100 µM; in [13], greater than 100 µM; in assay [19], greater than 100 µM. Moreover, in [15], the TGI came to 79.7 µM.
Take `C=C(Cl)C(C)(Cl)CCC(Cl)C(C)(C)Cl` (stereo not given): the TGI in assay [1], in assay [18], in [2], in assay [3], in assay [4] and in assay [5] was greater than 100 µM in each case. Further, the TGI in assay [6], in [7], in assay [8], in assay [9], in assay [10] and in assay [11] was greater than 100 µM throughout. The TGI in assay [12] is greater than 100 µM; in assay [13] it was greater than 100 µM; in assay [19], greater than 100 µM; in assay [15], greater than 100 µM; in assay [16], greater than 100 µM; in assay [17], 56.3 µM.
Turning to `CCC1(O)CC(OC2CC(N(C)C)C(OC3CC(O)C(OC4OC(C)C(=O)C=C4N)C(C)O3)C(C)O2)c2c(O)c3c(c(O)c2C1C(=O)OC)C(=O)c1cccc(O)c1C3=O` (stereo not given), the TGI is 0.0761 µM and 0.0126 µM in assay [18]; 1.13 µM in [3]; 0.236 µM in assay [4]; 0.17 µM and 0.0205 µM in [5]; 1.08 µM in [8]; 0.108 µM in assay [9]. For the same molecule, the TGI in assay [10] was 0.16 µM and 0.966 µM; in [11], 0.215 µM; in assay [13], 0.0151 µM; in [15], 1.67 µM; in assay [16] it was 0.036 µM; in assay [17] it was 0.203 µM.
Regarding `CC(C)[Si](OC12CCC(CC1O)CC2C(=O)O)(C(C)C)C(C)C` (stereo not given), the TGI in assay [1] is 29.2 µM; in assay [18] it was 70 µM; in [2], 26 µM; in assay [3] it was greater than 100 µM; in assay [4], greater than 100 µM; in [5] it was 24.2 µM. Besides, the TGI in assay [6] stood at 29.1 µM; in assay [7], 36.5 µM; in assay [8], 31.4 µM; in assay [9] it was 6.87 µM; in [10], 30 µM; in assay [11], 26.8 µM. Also, the TGI in assay [13] stood at 20.2 µM; in [14], 37.5 µM; in assay [15] it was 27.4 µM; in assay [16], 34.7 µM.
